These results are taken from ChEMBL document CHEMBL3507680, “University of Dundee, Gates Library screen for HepG2 cell viability”.

This data set can be described thus: Human HepG2 cell viability assay in 384 well format. The class given is toxicity, cell-based. Details: dose 125 nL, time 70.5 hour; concentration not given beside the values. The following applies: HepG2 cells, read-out: Inhibition.
Take `N#Cc1ccc(C(=O)N2C[C@@H](CN3CCCC3)C[C@H](CO)C2)cc1`: the cytotoxicity at 70.5 h is -2.46%.
As for `CN(C)c1ccc(C(=O)N2CCN(c3cnccn3)CC2)cn1`, the cytotoxicity at 70.5 h is -17.1%.
Regarding `COc1ccc(-c2nc(CCNCc3ccncc3)co2)cc1`, the cytotoxicity at 70.5 h came out at 1.89%.
As for `Cn1cc(C(=O)NCCCN2CCCCCC2=O)c(-c2cccnc2)n1`, the cytotoxicity at 70.5 h is 11%.
The result for `Cc1nccc([C@H]2C[C@@H]3CCN(Cc4ccco4)C[C@H]3O2)n1` reads -10.9%; that for `O=C(NCc1nnc2n1C(C(=O)NC1CC1)CC2)c1ccc(Cl)cc1Cl` (stereo not given), 4.24%.
Regarding `CC(=O)N1CCC(c2cccc(NC3CCOCC3)n2)CC1`, the cytotoxicity at 70.5 h was -1.75%.
The result for `Cc1cc(CSCc2csc(CS(C)(=O)=O)n2)no1` reads 2%.
The result for `COc1ccc(CNC(=O)N2CCc3sccc3C2)cc1O` reads -10.2%.
The result for `N#Cc1ccc(CN(CC(N)=O)Cc2cccc(F)c2)cc1` reads -2.99%; that for `Cc1cc(CN(Cc2ccccc2)CC(O)c2cccs2)on1` (stereo not given), 8.6%; that for `CCn1cc(-c2nccnc2C2CCCN(C(C)=O)C2)cn1` (stereo not given), -4.58%.
On to `COc1c(C2CCCN2C(=O)c2ccc3cc[nH]c3c2)c(C)nn1C` (stereo not given), for which the cytotoxicity at 70.5 h is -2.48%.
On to `Cc1ccc(CN2Cc3ccnn3CC(C(=O)NCC3CC3)C2)o1` (stereo not given), for which the cytotoxicity at 70.5 h is -13.3%.
Take `N#Cc1ccc(CN2CCCC(Cn3cncn3)C2)c(F)c1` (stereo not given): the cytotoxicity at 70.5 h is 8.28%.
As to `CCOc1ncccc1CNS(=O)(=O)c1ccc2c(c1)CCCC(=O)N2`, the cytotoxicity at 70.5 h is -4.49%.
The result for `CC(C)C1CCCN1C(=O)c1ccc(-n2ncc(C#N)c2N)cc1` (stereo not given) reads -5.76%.
The result for `CC(C)N(C)Cc1nnc2n1CCN(S(=O)(=O)C1CC1)CC2` reads -0.847%.
The result for `NC(=O)[C@@H]1CN2CCN(C(=O)C3CC3)C[C@@H]2[C@H]1c1ccccc1` reads -2.24%; that for `c1ccc2ncc(CC3CNCCOC3)cc2c1` (stereo not given), -0.7%; that for `CCc1ncc(C(=O)N(CCOC)Cc2nccs2)cn1`, 5.06%.
Take `O=C1NC2(CCNCC2)CC1c1cccnc1` (stereo not given): the cytotoxicity at 70.5 h was -7.17%.
With `CSc1nnc(CC2CCN(C(=O)Cc3ccncc3)CC2)n1C`, the cytotoxicity at 70.5 h was -16.8%.
Regarding `Cc1ccc(C)c(-n2ncc(C(=O)NCC3COC(C)(C)O3)c2N)c1` (stereo not given), the cytotoxicity at 70.5 h is 18.9%.
On to `CCC1=N[C@@]2(CC[C@@H]3CN(CC)C[C@@H]32)C(=O)N1C`, for which the cytotoxicity at 70.5 h worked out at 7.11%.
As to `CC(=O)N1CCC(C(=O)NCCN2CCCCC2)CC1`, the cytotoxicity at 70.5 h is -0.67%.
Take `NC(=O)C(CNC(=O)Cc1ccsc1)Cc1ccc(F)cc1` (stereo not given): the cytotoxicity at 70.5 h is -3.39%.
The result for `CCOCCOCc1cccc(CNc2cncc(-n3cccn3)n2)c1` reads -2.12%; that for `Cc1ccccc1NC(=O)Nc1cc(N2CCCC2)ncn1`, 10.8%; that for `COCCc1nnc(NC(=O)Cc2ccccc2Cl)o1`, -13.9%.
Consider `CC1=N[C@@]2(CC[C@@H]3CN(S(=O)(=O)N(C)C)C[C@@H]32)C(=O)N1CC(C)C`, for which the cytotoxicity at 70.5 h was -7.17%.
On to `Cc1nc(N(C)C)nc2c1COCC21CCN(CC2CC2)C1` (stereo not given), for which the cytotoxicity at 70.5 h amounted to 5.56%.
Regarding `Cc1nc(C2CCN2c2ncccn2)cc(N(C)C)n1` (stereo not given), the cytotoxicity at 70.5 h is -8.86%.
The result for `COCC(=O)N1CC[C@]2(O)CCN(Cc3cccnc3OC)C[C@@H]2C1` reads -7.29%; that for `O=C(CCc1cccs1)N1CCCC(N2CCNC2=O)C1` (stereo not given), -5.71%.
The result for `Cc1nc(CN2CCN(C(=O)C(C(C)C)n3cncn3)CC2)cs1` (stereo not given) reads -1.55%.
The result for `Cc1ccnn1CCCNC(=O)C1CCN(S(C)(=O)=O)CC1` reads -1.25%.
As for `COCC(=O)N1CCC2(CC1)CC(COC)N(Cc1ccccn1)C2` (stereo not given), the cytotoxicity at 70.5 h was -4.33%.
The result for `CCC(CN1CCCCC1)NC(=O)C1(c2ccc(F)cc2)CC1` (stereo not given) reads -7.64%.
The result for `CC(C)S(=O)(=O)C(C)C(=O)NCc1cccc(N2CCCCC2=O)c1` (stereo not given) reads 13.6%; that for `CCC(CC)N(C)S(=O)(=O)c1ccc(CCNC(C)=O)s1`, 1.4%; that for `c1cncc(-c2ccc3c(c2)CCC32CCNCC2)c1`, 17.8%.
Regarding `CCn1ncc2[nH]c(-c3cc4c(cc3OC)OCO4)nc21`, the cytotoxicity at 70.5 h was -4.87%.
The result for `Cc1nc(C(C)(C)C)sc1C(=O)NCCn1ccnc1` reads -7.91%.
The result for `CCn1ccnc1SCCn1cnc2ccsc2c1=O` reads -10%.
The result for `O=C(c1cscn1)N1CCC2(CCCN(CCOc3ccccc3)C2)C1` (stereo not given) reads -19.6%.
On to `O=c1oc(-c2ccc(F)cc2)nn1CN1CCN(C2CCCC2)CC1`, for which the cytotoxicity at 70.5 h was -9.32%.
The result for `CCOc1ccccc1OC1CCN(C(=O)c2ccc(=O)[nH]n2)CC1` reads -7.24%; that for `CC(C)N1CCC(C(=O)N2CCC(c3ccc(F)cc3)C2)CC1` (stereo not given), -20.4%; that for `c1csc(-c2nnc(CSCCN3CCOCC3)o2)c1`, 12.2%.
The result for `Fc1cnc(N2CCCC3(CN(Cc4ccccc4)CCO3)C2)nc1` (stereo not given) reads -4.05%.
The result for `O=c1[nH]cnc2c1CCN(S(=O)(=O)c1ccc(Cl)cc1)C2` reads -11.8%.
In the case of `CC(=O)NCCNC(=O)c1sccc1Br`, the cytotoxicity at 70.5 h is -16.2%.
The result for `CS(=O)(=O)N1C[C@@H]2OCC(=O)N(CC3CC3)[C@@H]2C1` reads -7.03%; that for `O=C(Cn1ccc(=O)cc1)NCc1ccc2sccc2c1`, -7.85%; that for `CCc1nsc(NC2CC(=O)N(C(C)(C)C)C2)n1` (stereo not given), -8.26%.
The result for `c1csc(CN2CCOCC3(CCN(C4CCOCC4)C3)C2)n1` (stereo not given) reads 0.591%; that for `CC(OCC(F)(F)F)C(=O)Nc1ccc(-n2cncn2)nc1` (stereo not given), -12.6%; that for `CC(NC(=O)NCCCN1CCCC1=O)c1nncn1C` (stereo not given), -9.31%.
The result for `Cc1c(C(=O)N2CC(O)C2)nnn1-c1cccc2cnccc12` reads -8.03%; that for `COc1cccc(CNc2cccnc2-n2cccn2)c1OC`, -14.7%.
`CN1CCOC(CNCc2nc(-c3ccoc3)no2)C1` (stereo not given): the cytotoxicity at 70.5 h was -6.11%.
The result for `CCn1c(C2CCN(C(=O)c3cc(CC(C)C)on3)CC2)nn(C)c1=O` reads 6.02%; that for `CC(=O)N1[C@@H](C(=O)NCC2CC2)C[C@@H]2CN(Cc3ccco3)C[C@@H]21`, 0.192%.
The result for `c1cnn(C2CN(CCCOc3ccc4c(c3)OCO4)C2)c1` reads 11.1%; that for `Cc1ccc(N2CCCC(NCC(=O)Nc3cc(C)no3)C2)nn1` (stereo not given), 25.6%.
The result for `CN(C)Cc1nnc(C(=O)N(C)Cc2ccc(C(F)(F)F)cc2)o1` reads -1.19%.
Consider `O[C@@H]1C[C@@H](c2nc(-c3ccccc3)no2)N(CC2CCCCC2)C1`, for which the cytotoxicity at 70.5 h is -12.5%.
On to `CC(=O)NCCNC(=O)CN1CCCC1Cn1nc(C)nc1C` (stereo not given), for which the cytotoxicity at 70.5 h was -16.9%.
Take `Cc1cc(C(=O)N2CCCC(n3cccn3)C2)c(C)n1C1CC1` (stereo not given): the cytotoxicity at 70.5 h was -2.54%.
For the molecule `Cc1nc(C)c(S(=O)(=O)NC(=O)c2ccsc2)s1`, the cytotoxicity at 70.5 h is -7%.
The result for `N#Cc1cccnc1OC1CCN(S(=O)(=O)c2ccc(Br)cc2)CC1` reads -12.9%; that for `COc1ccc(NC(=O)N2CCCC2c2ccco2)cc1OC` (stereo not given), -0.202%.
Consider `COc1cc(F)c(C(=O)NCc2ccon2)c(F)c1`, for which the cytotoxicity at 70.5 h is -3.42%.
`CCCn1nc(C)c(C(=O)N(C)[C@@H]2CC[C@@H](OC)[C@@H]2O)c1C`: the cytotoxicity at 70.5 h was -3.89%.
As to `c1cnn(CCN2CCOC(Cn3cncn3)C2)c1` (stereo not given), the cytotoxicity at 70.5 h stood at 6.43%.
Turning to `Cc1noc(C2(C)CCCN(C(=O)C(C)C)C2)n1` (stereo not given), the cytotoxicity at 70.5 h was -0.687%.
As for `O=C1CCNc2cc3c(cc2CN1CC1CC1)OCO3`, the cytotoxicity at 70.5 h was 0.558%.
Consider `CCOc1ncccc1CNS(=O)(=O)c1ccc2c(c1)CCO2`, for which the cytotoxicity at 70.5 h was -2.87%.
Turning to `CCc1nccn1C1CCCN(C(=O)CCc2nc(C(C)C)no2)C1` (stereo not given), the cytotoxicity at 70.5 h was -1.73%.
The result for `Cc1ccc(-n2cnnn2)cc1NCC(=O)Nc1cc(F)ccc1F` reads -66.2%; that for `COC(=O)c1sccc1S(=O)(=O)NCCC(O)c1ccoc1` (stereo not given), -0.756%; that for `O=C(C1CN(CC2CCOCC2)CC12CCOCC2)N1CCOCC1` (stereo not given), -2.61%.
Take `Cc1cnn(C2CCCN(C(=O)c3cccc(-n4cnnn4)c3)C2)c1` (stereo not given): the cytotoxicity at 70.5 h was -3.6%.
Consider `CC(C)OCCC(=O)NS(=O)(=O)N1CCOc2ccccc21`, for which the cytotoxicity at 70.5 h was -0.303%.
The result for `Cc1nn(C)cc1-c1ccnc(N(C)Cc2cnn(C)c2)n1` reads -2.26%; that for `CCc1ccc(CN2CCCCC2c2n[nH]cc2-c2cc(C)no2)cc1` (stereo not given), -5.56%.
In the case of `Cc1ncsc1CNc1cc(N2CCCC2CO)ncn1` (stereo not given), the cytotoxicity at 70.5 h was 26.9%.
The result for `CC(C)Cn1cnnc1C1CCCN1C(=O)c1cc2ccccn2c1` (stereo not given) reads 14.5%; that for `Cc1ccc(N2CCCN(C(=O)CCc3ccsc3)CC2)nn1`, -6.07%; that for `CCCc1noc(CN2CCCC2c2ccsc2)n1` (stereo not given), -17.8%.
The result for `Cn1nc(C(=O)N2CCC(Oc3ccc(C#N)cn3)CC2)ccc1=O` reads -11%.
The result for `CS(=O)(=O)N1CCC(Cc2cnc(Br)cn2)CC1` reads -5.81%.
For `COC(=O)C(CNC(=O)Nc1nncs1)Cc1ccc(F)cc1` (stereo not given), the cytotoxicity at 70.5 h was -4.56%.
The result for `Cc1nc(N2CCCC(OCc3ccccn3)C2)c2c(C)noc2n1` (stereo not given) reads -9.19%; that for `CS(=O)(=O)CCCNC(=O)Nc1sc2ccccc2c1Cl`, -4.03%; that for `Cc1nc(CCNC(=O)CC2CCN(C(C)C)CC2)sc1Cl`, 45.7%.
The result for `CNC(=O)NC(=O)CN(C)C(c1cccnc1)c1ccc(F)cc1F` (stereo not given) reads -1.87%; that for `CCOc1ccc(CN2CCOCC2c2[nH]ncc2C)cc1CO` (stereo not given), -2.3%; that for `CN(C)CC(=O)N1Cc2nc(C(=O)NCc3ccccc3)oc2C1`, 13%.
